Here are results for 21 compounds from PubChem BioAssay (NCI).

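Dose response: 5 concentrations. Exposure: 48 h. Format: 96-well plates. Endpoint: linear interpolation; highest concentration if not reached. GI50 = concentration required for 50% inhibition of growth. TGI is the concentration that stops growth completely.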

The test system of one assay is SN12C renal. Put plainly: NCI anticancer screen, dose series, 48 h.
Consider `COc1ccc(-c2nc3sc4c(c3c(=O)[nH]2)CCCCCC4)cc1`, for which the GI50 was greater than 33.2 µM and the TGI was greater than 33.2 µM.
`O=C1CC(c2ccc(O)cc2)C2(O1)C(=O)OC(C(O)CO)C2O` (centres undefined) showed a TGI greater than 100 µM.
The compound `CC1=C(C)C(=O)c2c(cc3ccccn23)C1=O` came in with a TGI of 27.1 µM.
Turning to `CC1SC2=NC3=C(c4ccccc4C3=O)C(c3ccc(F)cc3)N2C1=O` (centres undefined), the TGI was greater than 100 µM.
The same measure, in the same setting: with `CC1C=C(OC(=O)c2ccccc2)C(=O)C(n2cc(F)c(=O)[nH]c2=O)O1` (centres undefined) the figure was greater than 100 µM.
Turning to `COc1ccc(-c2ccc(/C=N/n3c(COc4ccc(Cl)cc4Cl)nn(CN4CCOCC4)c3=S)o2)c([N+](=O)[O-])c1`, the GI50 was 24.5 µM and the TGI is 67.7 µM.
`OC(c1cc(-c2ccccc2)nc2ccc(Cl)cc12)C1CCCCN1` (centres undefined): the GI50 is 3.14 µM and the TGI amounted to 10.6 µM.
`COc1ccc(OC)c(/C=C2\SC(=S)NC2=O)c1`: the GI50 was 24.8 µM and the TGI came out at 77.4 µM.
Turning to `CCN(CC)c1ccc(C(=O)c2ccccc2C(=O)O)c(O)c1`, the TGI is greater than 100 µM.
Regarding `CC(CCC(=O)O)[C@H]1CCC2[C@@H]3CC[C@@H]4CC(O)CC[C@]4(C)C3CC[C@@]21C` (some centres undefined), the GI50 was greater than 100 µM and the TGI is greater than 100 µM.
In the case of `Nc1ccn(CCNCCn2cnc3nc(N)[nH]c(=O)c32)c(=O)n1`, the TGI is greater than 100 µM.

The subject of another assay is U251 CNS. As to the kind of experiment: NCI anticancer screen, dose series, 48 h.
`CCCC(C)c1cc(Cc2cc(Cl)cc(Cl)c2O)c(O)c(Cc2cc(Cl)cc(Cl)c2O)c1` (centres undefined): the GI50 was 0.839 µM and the TGI is 11.1 µM.
The compound `C/C(=N\NS(=O)(=O)c1ccccc1)c1ccc(Cl)c(Cl)c1` showed a TGI greater than 100 µM.
Turning to `COc1ccc(-c2nn3c(-c4cc(F)c(Cl)cc4Cl)nnc3s2)cc1`, the GI50 is 24.6 µM and the TGI came out at 74.5 µM.
Turning to `CCCNC1=C(C(=O)OCC)C(=O)CO1`, the TGI is greater than 100 µM.
On the same count and under the same terms, then `COC(=O)C(=O)C1(CCC(C)=O)c2ccccc2-c2c(C)ccc(C)c21` (centres undefined), with greater than 100 µM.
Regarding `O=C(NCCO)Nc1ccc(-c2nc(N3CCOCC3)c3cccn3n2)cc1`, the GI50 is 1.01 µM and the TGI is greater than 95.1 µM.
With `CC(C)c1cc(-c2n[nH]c(=O)n2-c2ccc3c(ccn3C)c2)c(O)cc1O`, the GI50 was less than 0.0257 µM and the TGI is 18 µM.
Take `COc1ccc2nc(-c3cccs3)cc(C(O)CN3CCSCC3)c2c1` (centres undefined): the TGI amounted to 50.2 µM.
The same measure, in the same setting: then `N#C/C(=C\c1ccc(O)c(O)c1)C(N)=S`, with greater than 100 µM.
For `O=C(CN1CCOCC1)Nc1nc(-c2ccc(Cl)cc2)cs1`, the TGI is greater than 100 µM.
Still for that read-out and setting: with `O=C1CC(c2ccc(O)cc2)C2(O1)C(=O)OC(C(O)CO)C2O` (centres undefined) the figure was greater than 100 µM.
Still for that read-out and setting: then `CC1=C(C)C(=O)c2c(cc3ccccn23)C1=O`, with 27.2 µM; and `CC1SC2=NC3=C(c4ccccc4C3=O)C(c3ccc(F)cc3)N2C1=O` (centres undefined), with greater than 100 µM; and `CC1C=C(OC(=O)c2ccccc2)C(=O)C(n2cc(F)c(=O)[nH]c2=O)O1` (centres undefined), with greater than 100 µM.
`COc1ccc(OC)c(/C=C2\SC(=S)NC2=O)c1`: the GI50 is 41 µM and the TGI is greater than 100 µM.
With `CCN(CC)c1ccc(C(=O)c2ccccc2C(=O)O)c(O)c1`, the TGI is greater than 100 µM.
In the case of `CC(CCC(=O)O)[C@H]1CCC2[C@@H]3CC[C@@H]4CC(O)CC[C@]4(C)C3CC[C@@]21C` (some centres undefined), the GI50 was 40.2 µM and the TGI was greater than 100 µM.
`Nc1ccn(CCNCCn2cnc3nc(N)[nH]c(=O)c32)c(=O)n1` displayed a TGI greater than 100 µM.

For another assay, the system named is UACC-62 melanoma. Put plainly: NCI anticancer screen, dose series, 48 h.
`CCCC(C)c1cc(Cc2cc(Cl)cc(Cl)c2O)c(O)c(Cc2cc(Cl)cc(Cl)c2O)c1` (centres undefined): the GI50 is 0.629 µM and the TGI turned out to be 4.2 µM.
With `C/C(=N\NS(=O)(=O)c1ccccc1)c1ccc(Cl)c(Cl)c1`, the TGI was greater than 100 µM.
Regarding `COc1ccc(-c2nn3c(-c4cc(F)c(Cl)cc4Cl)nnc3s2)cc1`, the GI50 was 21.8 µM and the TGI is greater than 100 µM.
In turn, `CCCNC1=C(C(=O)OCC)C(=O)CO1` returned a TGI greater than 100 µM.
Still for that read-out and setting: with `COC(=O)C(=O)C1(CCC(C)=O)c2ccccc2-c2c(C)ccc(C)c21` (centres undefined) the figure was greater than 100 µM.
Turning to `O=C(NCCO)Nc1ccc(-c2nc(N3CCOCC3)c3cccn3n2)cc1`, the GI50 was 0.0809 µM and the TGI turned out to be 1.84 µM.
Regarding `CC(C)c1cc(-c2n[nH]c(=O)n2-c2ccc3c(ccn3C)c2)c(O)cc1O`, the GI50 is less than 0.0173 µM and the TGI was 0.224 µM.
On to `COc1ccc2nc(-c3cccs3)cc(C(O)CN3CCSCC3)c2c1` (centres undefined), for which the TGI came to 38.6 µM.
The same measure, in the same setting: with `N#C/C(=C\c1ccc(O)c(O)c1)C(N)=S` the figure was greater than 100 µM.
The same measure, in the same setting: then `O=C(CN1CCOCC1)Nc1nc(-c2ccc(Cl)cc2)cs1`, with 53.3 µM.
For `COc1ccc(-c2nc3sc4c(c3c(=O)[nH]2)CCCCCC4)cc1`, the GI50 was 0.908 µM and the TGI is greater than 33.2 µM.
`O=C1CC(c2ccc(O)cc2)C2(O1)C(=O)OC(C(O)CO)C2O` (centres undefined) had a TGI greater than 100 µM.
On the same count and under the same terms, then `CC1=C(C)C(=O)c2c(cc3ccccn23)C1=O`, with 35.4 µM; and `CC1SC2=NC3=C(c4ccccc4C3=O)C(c3ccc(F)cc3)N2C1=O` (centres undefined), with greater than 100 µM; and `CC1C=C(OC(=O)c2ccccc2)C(=O)C(n2cc(F)c(=O)[nH]c2=O)O1` (centres undefined), with greater than 100 µM.
On to `COc1ccc(-c2ccc(/C=N/n3c(COc4ccc(Cl)cc4Cl)nn(CN4CCOCC4)c3=S)o2)c([N+](=O)[O-])c1`, for which the GI50 is 87.6 µM and the TGI was greater than 100 µM.
Taken in the same sequence, the figures for `OC(c1cc(-c2ccccc2)nc2ccc(Cl)cc12)C1CCCCN1` (centres undefined) were 1.88 µM and 3.68 µM.
Taken in the same sequence, the figures for `COc1ccc(OC)c(/C=C2\SC(=S)NC2=O)c1` were 17.7 µM and 53.4 µM.
`CCN(CC)c1ccc(C(=O)c2ccccc2C(=O)O)c(O)c1` gave a TGI greater than 100 µM.
For the compound `CC(CCC(=O)O)[C@H]1CCC2[C@@H]3CC[C@@H]4CC(O)CC[C@]4(C)C3CC[C@@]21C` (some centres undefined), the GI50 was 38.6 µM and the TGI was greater than 100 µM.
